In patent US8343983B2, “Substituted pyrazolo-pyrimidine compounds” (ArQule, Inc., priority 2009, dated 2013) one finds inhibition data, which are given here for eight compounds.

Structures are written as SMILES. Like-named read-outs stand apart in the source and are kept apart here.

The experiment has as its system cancer cells. Put plainly: MTS assay: inhibition of cell growth (formazan absorbance at 492 nm after 72 hours with test compound). Format: cell-based. The settings on record: inhibition class. The procedure: Cells were maintained at 37° C., 5% CO2 in DMEM media supplemented with 1% fetal bovine serum, penicillin/streptomycin and fungizone (Invitrogen). Cells were seeded into 96-well tissue culture plates at 3000 per well and cultured at 37° C. for 18 hours. Test compounds were dissolved and diluted to 300× in DMSO then diluted 1:40 in DMEM. Cells were incubated with test compounds for 72 hours followed by incubation with tetrazolium compound (3-(4,5-dimethylthiazol-2-yl)-5-(3-carboxymethoxyphenyl)-2-(4-sulfophenyl)-2H-tetrazolium, inner salt; MTS) and the electron coupling reagent, phenazine methosulfate (PMS) for 4 hours. […] The ability of compounds to inhibit cell growth in this assay is correlated with the reduction of dehydrogenase enzyme activity found in metabolically active cells. The measurement of the absorbance of the formazan was assessed using an ENVISION™ (Perkin Elmer) microplate reader at 492 nm. The calculated IC50 value is the concentration of the test compound that causes a 50% decrease in the absorbance. […] A=>79% inhibition, B=>50 to 79% inhibition, C=<50% inhibition.
(In general: Tetrazolium assays rely on reduction of a dye to a coloured formazan, in cell work by metabolically active cells.)

[1] abbreviates: Homo sapiens, DLD-1 cells, read-out: DLD-1, MTS 72 hours at 10 uM.
[2] abbreviates: Homo sapiens, KATO III cells, read-out: KATO III, MTS 72 hours at 10 uM.
The mark [3] stands for this setting: Homo sapiens, MDA-MB-231 cells, read-out: MDA-MB-231, MTS 72 hours at 10 uM.
Where [4] appears, read: Homo sapiens, NCI-H1299 cells, read-out: NCI-H1299, MTS 72 hours at 10 uM.
Where [5] appears, read: Homo sapiens, PC-3 cells, read-out: PC-3, MTS 72 hours at 10 uM.
[6] abbreviates: PACA-2 cells, read-out: PACA-2, MTS 72 hours at 10 uM.

Take `COc1cccc(CCNc2nc3c4c(n[nH]c4n2)CCN3Cc2ccccc2)c1` [Compound 36, 6-benzyl-N-[2-(3-methoxyphenyl)ethyl]-2,6,7,8-tetrahydro-1,2,3,5,6-pentaazaacenaphthylen-4-amine]: the inhibition at 10 µM runs as follows: under setting [1], < 50%; under setting [2], < 50%; under setting [3], < 50%; under setting [4], < 50%; under setting [5], < 50%; under setting [6], < 50%.
For the compound `CSc1nc2c3c(n[nH]c3n1)CCN2Cc1ccccc1` [Compound 1, 6-benzyl-4-(methylthio)-2,6,7,8-tetrahydro-1,2,3,5,6-pentaazaacenaphthylene], the inhibition at 10 µM reads like this: under setting [1], < 50%; under setting [2], < 50%; under setting [3], < 50%; under setting [4], < 50%; under setting [5], < 50%; under setting [6], < 50%.
In the case of `O=C(NCC1CCCCC1)C1CN(Cc2ccccc2)c2nc(NCc3ccccc3)nc3[nH]nc1c23` (stereo not drawn) [Compound 240, 6-benzyl-4-(benzylamino)-N-(cyclohexylmethyl)-2,6,7,8-tetrahydro-1,2,3,5,6-pentaazaacenaphthylene-8-carboxamide], the inhibition at 10 µM was > 79% under setting [1]; > 79% under setting [2]; < 50% under setting [3]; > 79% under setting [4]; > 79% under setting [5]; < 50% under setting [6].
Regarding `C1CCC(Nc2nc3c4c(n[nH]c4n2)CCN3)CC1` [Compound 123, N-cyclohexyl-2,6,7,8-tetrahydro-1,2,3,5,6-pentaazaacenaphthylen-4-amine], the inhibition at 10 µM reads like this: under setting [1], < 50%; under setting [2], < 50%; under setting [3], < 50%; under setting [4], < 50%; under setting [5], < 50%; under setting [6], < 50%.
Consider `c1ccc(CN2CCc3n[nH]c4nc(NCCc5cccnc5)nc2c34)cc1` [Compound 30, 6-benzyl-N-(2-pyridin-3-ylethyl)-2,6,7,8-tetrahydro-1,2,3,5,6-pentaazaacenaphthylen-4-amine], for which the inhibition at 10 µM is, setting by setting: under setting [1], 50 to 79%; under setting [2], 50 to 79%; under setting [3], 50 to 79%; under setting [4], < 50%; under setting [5], < 50%; under setting [6], < 50%.
Regarding `O=C(NCc1ccc2c(c1)OCO2)C1CN(Cc2ccccc2)c2nc(NCc3ccccc3)nc3[nH]nc1c23` (stereo not drawn) [Compound 234, N-(1,3-benzodioxol-5-ylmethyl)-6-benzyl-4-(benzylamino)-2,6,7,8-tetrahydro-1,2,3,5,6-pentaazaacenaphthylene-8-carboxamide], the inhibition at 10 µM was > 79% under setting [1]; > 79% under setting [2]; > 79% under setting [3]; > 79% under setting [4]; > 79% under setting [5]; 50 to 79% under setting [6].
Consider `c1ccc(CN2CCc3n[nH]c4nc(N5CCCCC5)nc2c34)cc1` [Compound 76, 6-benzyl-4-piperidin-1-yl-2,6,7,8-tetrahydro-1,2,3,5,6-pentaazaacenaphthylene], for which the inhibition at 10 µM by setting is: under setting [1], < 50%; under setting [2], < 50%; under setting [3], < 50%; under setting [4], < 50%; under setting [5], < 50%; under setting [6], < 50%.
On to `c1ccc(CN2CCc3n[nH]c4nc(N5CCN(Cc6ccccn6)CC5)nc2c34)cc1` [Compound 29, 6-benzyl-4-[4-(pyridin-2-ylmethyl)piperazin-1-yl]-2,6,7,8-tetrahydro-1,2,3,5,6-pentaazaacenaphthylene], for which the inhibition at 10 µM reads like this: under setting [1], < 50%; under setting [2], < 50%; under setting [3], < 50%; under setting [4], < 50%; under setting [5], < 50%; under setting [6], < 50%.
